According to US6737383B1, “Herbicidal oxadiazolidines” (priority 1999, dated 2004):

Legend:
bedstraw = experiment: Test B pre/postemergence bedstraw; assay type: in vivo, Galium aparine
Method in brief: (§1)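 Test chemicals in a non-phytotoxic solvent mixture with surfactant were sprayed preemergence onto planted seeds and postemergence onto plants 2 to 18 cm tall (1- to 4-leaf stage). After twelve to sixteen days in a greenhouse, injury was visually rated against untreated controls from 0 (no effect) to 10 (complete control).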

blackgrass = experiment: Test B pre/postemergence blackgrass; assay type: in vivo, Alopecurus myosuroides
Method in brief: as §1

surinam grass = experiment: Test B pre/postemergence surinam grass; assay type: in vivo, Brachiaria decumbens
Method in brief: as §1

cocklebur = experiment: Test B pre/postemergence cocklebur; assay type: in vivo, Xanthium strumarium
Method in brief: as §1

corn = experiment: Test B pre/postemergence corn; assay type: in vivo, Zea mays
Method in brief: as §1

crabgrass = experiment: Test B pre/postemergence crabgrass; assay type: in vivo, Digitaria sanguinalis
Method in brief: as §1

giant foxtail = experiment: Test B pre/postemergence giant foxtail; assay type: in vivo, Setaria faberii
Method in brief: as §1

morningglory = experiment: Test B pre/postemergence morningglory; assay type: in vivo, Ipomoea hederacea
Method in brief: as §1

pigweed = experiment: Test B pre/postemergence pigweed; assay type: in vivo, Amaranthus retroflexus
Method in brief: as §1

soybean = experiment: Test B pre/postemergence soybean; assay type: in vivo, Glycine max
Method in brief: as §1

sugar beet = experiment: Test B pre/postemergence sugar beet; assay type: in vivo, Beta vulgaris
Method in brief: as §1

wild oat = experiment: Test B pre/postemergence wild oat; assay type: in vivo, Avena fatua
Method in brief: as §1

purple nutsedge = experiment: Test B pre/postemergence purple nutsedge; assay type: in vivo, Cyperus rotundus
Method in brief: as §1

rice = experiment: Test B flood test rice; assay type: in vivo, Oryza sativa
Method in brief: (§2)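 Each value is a visual injury score relative to controls, with 10 meaning complete control and 0 no effect. Evaluation took place twelve to sixteen days after the 2-leaf-stage plants were treated and kept in the greenhouse.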

smallflower flatsedge = experiment: Test B flood test smallflower flatsedge; assay type: in vivo, Cyperus difformis
Method in brief: as §2

duck salad = experiment: Test B flood test duck salad; assay type: in vivo, Heteranthera limosa
Method in brief: as §2

[1] = Postemergence, Rate 62 g/ha, scale 0 to 10, 0 is no effect, 10 is complete control
[2] = Postemergence, Rate 250 g/ha, scale 0 to 10, 0 no effect, 10 complete control
[3] = Preemergence, Rate 62 g/ha, scale 0 to 10, 0 is no effect, 10 is complete control
[4] = Preemergence, Rate 125 g/ha, scale 0 to 10 (0 no effect, 10 complete control)
[5] = Preemergence, Rate 250 g/ha, scale of 0 to 10 where 0 is no effect and 10 is complete control
[6] = Preemergence, Rate 500 g/ha, scale 0 (no effect) to 10 (complete control)
[7] = Rate 125 g/ha, Postemergence, scale 0 to 10, 0 no effect, 10 complete control
[8] = Rate 500 g/ha, Postemergence, 0 to 10 scale (0 no effect, 10 complete control)
[9] = Rate 125 g/ha, Postemergence section (flood test species), scale 0 to 10, 0 no effect, 10 complete control
[10] = Rate 500 g/ha, Postemergence section of Table B, 0 to 10 scale (0 no effect, 10 complete control)
[11] = flood test, listed under Postemergence, Rate 250 g/ha, scale 0 to 10, 0 no effect, 10 complete control

For `CC(C)N(C(=O)n1oc(=O)n(-c2ccccc2)c1=O)c1ccc(F)cc1` [Compound 38], the “Bedstraw plant response rating” value (bedstraw; [1]) was 0, the “Bedstraw plant response rating” value (bedstraw; [2]) was 0 and the “Plant response rating, Bedstraw” value (bedstraw; [3]) was 0. For the same compound, the “Plant response rating, Bedstraw” value (bedstraw; [4]) was 0, the “Plant response rating, Bedstraw” value (bedstraw; [5]) was 0 and the “Bedstraw plant response rating” value (bedstraw; [6]) was 0. For the same compound, the “Bedstraw plant response rating” value (bedstraw; [7]) was 0, the “Bedstraw plant response rating” value (bedstraw; [8]) was 5 and the “Blackgrass plant response rating” value (blackgrass; [1]) was 0. For the same compound, the “Blackgrass plant response rating” value (blackgrass; [2]) was 7, the “Plant response rating, Blackgrass” value (blackgrass; [3]) was 4 and the “Plant response rating, Blackgrass” value (blackgrass; [4]) was 6. For the same compound, the “Plant response rating, Blackgrass” value (blackgrass; [5]) was 10, the “Blackgrass plant response rating” value (blackgrass; [6]) was 10 and the “Blackgrass plant response rating” value (blackgrass; [7]) was 3. For the same compound, the “Blackgrass plant response rating” value (blackgrass; [8]) was 8, the “B. signalgrass plant response rating” value (surinam grass; [1]) was 0 and the “B. signalgrass plant response rating” value (surinam grass; [2]) was 0. The “Plant response rating, B. signalgrass” value (surinam grass; [3]) was 3, the “Plant response rating, B. signalgrass” value (surinam grass; [4]) was 4 and the “Plant response rating, B. signalgrass” value (surinam grass; [5]) was 8. For the same compound, the “B. signalgrass plant response rating” value (surinam grass; [6]) was 8, the “B. signalgrass plant response rating” value (surinam grass; [7]) was 0 and the “B. signalgrass plant response rating” value (surinam grass; [8]) was 0. The “Cocklebur plant response rating” value (cocklebur; [1]) was 0, the “Cocklebur plant response rating” value (cocklebur; [2]) was 1 and the “Plant response rating, Cocklebur” value (cocklebur; [3]) was 0. The “Plant response rating, Cocklebur” value (cocklebur; [4]) was 0, the “Cocklebur plant response rating” value (cocklebur; [6]) was 0 and the “Cocklebur plant response rating” value (cocklebur; [7]) was 0. For the same compound, the “Cocklebur plant response rating” value (cocklebur; [8]) was 1, the “Corn plant response rating” value (corn; [1]) was 0 and the “Corn plant response rating” value (corn; [2]) was 0. For the same compound, the “Plant response rating, Corn” value (corn; [3]) was 0, the “Plant response rating, Corn” value (corn; [4]) was 0 and the “Plant response rating, Corn” value (corn; [5]) was 0. For the same compound, the “Corn plant response rating” value (corn; [6]) was 0, the “Corn plant response rating” value (corn; [7]) was 0 and the “Corn plant response rating” value (corn; [8]) was 0. For the same compound, the “Crabgrass plant response rating” value (crabgrass; [1]) was 0, the “Crabgrass plant response rating” value (crabgrass; [2]) was 8 and the “Plant response rating, Crabgrass” value (crabgrass; [3]) was 2. For the same compound, the “Plant response rating, Crabgrass” value (crabgrass; [4]) was 5, the “Plant response rating, Crabgrass” value (crabgrass; [5]) was 10 and the “Crabgrass plant response rating” value (crabgrass; [6]) was 10. For the same compound, the “Crabgrass plant response rating” value (crabgrass; [7]) was 7, the “Crabgrass plant response rating” value (crabgrass; [8]) was 9 and the “Giant foxtail plant response rating” value (giant foxtail; [1]) was 0. The “Giant foxtail plant response rating” value (giant foxtail; [2]) was 4, the “Plant response rating, Giant foxtail” value (giant foxtail; [3]) was 10 and the “Plant response rating, Giant foxtail” value (giant foxtail; [4]) was 10. For the same compound, the “Plant response rating, Giant foxtail” value (giant foxtail; [5]) was 10, the “Giant foxtail plant response rating” value (giant foxtail; [6]) was 10 and the “Giant foxtail plant response rating” value (giant foxtail; [7]) was 2. For the same compound, the “Giant foxtail plant response rating” value (giant foxtail; [8]) was 8, the “Morningglory plant response rating” value (morningglory; [1]) was 0 and the “Morningglory plant response rating” value (morningglory; [2]) was 1. For the same compound, the “Plant response rating, Morningglory” value (morningglory; [3]) was 0, the “Plant response rating, Morningglory” value (morningglory; [4]) was 0 and the “Plant response rating, Morningglory” value (morningglory; [5]) was 0. The “Morningglory plant response rating” value (morningglory; [6]) was 0, the “Morningglory plant response rating” value (morningglory; [7]) was 0 and the “Morningglory plant response rating” value (morningglory; [8]) was 10. For the same compound, the “Redroot pigweed plant response rating” value (pigweed; [1]) was 0, the “Redroot pigweed plant response rating” value (pigweed; [2]) was 0 and the “Plant response rating, Redroot pigweed” value (pigweed; [3]) was 2. The “Plant response rating, Redroot pigweed” value (pigweed; [4]) was 10, the “Plant response rating, Redroot pigweed” value (pigweed; [5]) was 10 and the “Redroot pigweed plant response rating” value (pigweed; [6]) was 10. The “Redroot pigweed plant response rating” value (pigweed; [7]) was 0, the “Redroot pigweed plant response rating” value (pigweed; [8]) was 0 and the “Soybean plant response rating” value (soybean; [1]) was 0. The “Soybean plant response rating” value (soybean; [2]) was 0, the “Plant response rating, Soybean” value (soybean; [3]) was 0 and the “Plant response rating, Soybean” value (soybean; [4]) was 0. The “Plant response rating, Soybean” value (soybean; [5]) was 0, the “Soybean plant response rating” value (soybean; [6]) was 2 and the “Soybean plant response rating” value (soybean; [7]) was 0. The “Sugarbeets plant response rating” value (sugar beet; [1]) was 0, the “Sugarbeets plant response rating” value (sugar beet; [2]) was 0 and the “Plant response rating, Sugarbeets” value (sugar beet; [3]) was 0. For the same compound, the “Plant response rating, Sugarbeets” value (sugar beet; [4]) was 0, the “Plant response rating, Sugarbeets” value (sugar beet; [5]) was 2 and the “Sugarbeets plant response rating” value (sugar beet; [6]) was 6. The “Sugarbeets plant response rating” value (sugar beet; [7]) was 0, the “Wild oats plant response rating” value (wild oat; [1]) was 0 and the “Wild oats plant response rating” value (wild oat; [2]) was 0. For the same compound, the “Plant response rating, Wild oats” value (wild oat; [4]) was 6, the “Plant response rating, Wild oats” value (wild oat; [5]) was 6 and the “Wild oats plant response rating” value (wild oat; [6]) was 8. The “Wild oats plant response rating” value (wild oat; [7]) was 0, the “Nutsedge plant response rating” value (purple nutsedge; [1]) was 0 and the “Nutsedge plant response rating” value (purple nutsedge; [2]) was 0. For the same compound, the “Plant response rating, Nutsedge” value (purple nutsedge; [3]) was 0, the “Plant response rating, Nutsedge” value (purple nutsedge; [4]) was 0 and the “Plant response rating, Nutsedge” value (purple nutsedge; [5]) was 0. For the same compound, the “Nutsedge plant response rating” value (purple nutsedge; [6]) was 0, the “Nutsedge plant response rating” value (purple nutsedge; [7]) was 0 and the “Nutsedge plant response rating” value (purple nutsedge; [8]) was 0. For the same compound, the “Rice plant response rating” value (rice; [1]) was 0, the “Rice plant response rating” value (rice; [9]) was 0 and the “Rice plant response rating” value (rice; [10]) was 0. For the same compound, the “Rice plant response rating” value (rice; [11]) was 0, the “S. Flatsedge plant response rating” value (smallflower flatsedge; [1]) was 0 and the “S. Flatsedge plant response rating” value (smallflower flatsedge; [9]) was 0. The “S. Flatsedge plant response rating” value (smallflower flatsedge; [11]) was 0, the “Ducksalad plant response rating” value (duck salad; [1]) was 0 and the “Ducksalad plant response rating” value (duck salad; [10]) was 0. The “Ducksalad plant response rating” value (duck salad; [11]) was 0.
